Assay [1] has as its system Rattus norvegicus. Description: Antiinflammatory activity in Fisher 344 rat assessed as reduction of carrageenan-induced paw oedema at 0.01 mmol/kg, ip after 3.5 hrs. The class given is functional. More on the design: scale not given: the % may be the effect or the level left. In general terms: In the carrageenan paw model, swelling and tenderness develop within hours.

Assay [2] can be described thus: Inhibition of soybean lipoxygenase. More on the design: species or system Glycine max.
A short description of assay [3]: Antioxidant activity assessed as xanthine-xanthine oxidase-induced superoxide anion radical scavenging activity at 0.1 mM after 10 mins by spectrophotometry. Format: functional.
Assay [4] is described as follows: Antioxidant activity assessed as Fe3+/ascorbic acid-induced hydroxyl radical scavenging activity at 100 uM after 30 mins. The class given is functional.
Assay [5] is described as follows: Antioxidant activity against AAPH-induced lipid peroxidation at 100 uM by UV spectrophotometry. Format: functional.
The test system of assay [6] is Radical scavenging activity. Description: Antioxidant activity assessed as DPPH free radical scavenging activity at 100 uM after 60 mins by spectrophotometry. Format: functional.
The test system of assay [7] is Radical scavenging activity. Kind of assay: Antioxidant activity assessed as DPPH free radical scavenging activity at 100 uM after 20 mins by spectrophotometry. Format: functional. (In general: The DPPH test is a chemical assay of radical scavenging.)
Assay [8] concerns Radical scavenging activity. Description: Antioxidant activity assessed as DPPH free radical scavenging activity at 50 uM after 20 to 60 mins by spectrophotometry. Format: functional.
The subject of assay [9] is Radical scavenging activity. Description: Antioxidant activity assessed as DPPH free radical scavenging activity at 100 uM by spectrophotometry. The class given is functional.
Assay [10] has as its system Glycine max. Description: Inhibition of soybean lipoxygenase at 100 uM.

The structures appear in SMILES notation. Activity calls are given as the source filed them. No cut-off for these calls is given here.

Activity, IC50 and inhibition data for 14 compounds are collected here from ChEMBL document CHEMBL2375310, “Analysis of the antioxidant properties of differently substituted 2- and 3-indolyl carbohydrazides and related derivatives” (Eur J Med Chem, 2013).

As a reminder, the IC50 is the concentration that gives 50% inhibition. The term inhibition denotes the relative decrease from the control value, in per cent.

`CC(C)=NNC(=O)c1cc2ccccc2n1C`: the Activity in assay [1] was determined as 40%; in [3], 100%; in assay [4] it was 18%; in [5], 87%; in [6], 91%. Besides, in assay [2], the half-inhibitory concentration (IC50) was found to be 62.5 µM. Moreover, the outcome in [7] and in assay [8] was inactive.
Take `Cc1c(C)c2c(c(C)c1O)CCC(C)(C(=O)O)O2` (centres undefined): the figures for the Activity in assay [4] and in assay [5] were 73% and 63%, respectively.
For the compound `CCCCNNC(=O)c1cc2ccccc2[nH]1`, the Activity is 57% in assay [1]; 33% in assay [3]; 90% in assay [4]; 78% in [5]; 8% in assay [6]; 79% in assay [7]. Also, 62.5 µM corresponded to half-maximal inhibition in assay [2] (IC50). Besides, the result in assay [9] was Active. In addition, the result in [8] was inactive.
`C/C(CC(C)C)=N\NC(=O)c1cc2ccccc2[nH]1` registered an inhibition in assay [10] of 31%. Also, the outcome in assay [3] and in assay [8] was inactive. The Activity in assay [4] is 74%; in [5], 68%; in [6] it was 36%; in [7], 10%. The result in assay [9] was Active.
The compound `O=C(NNCCCc1ccccc1)c1cc2ccccc2[nH]1` had an inhibition in assay [10] of 33%. In addition, the outcome in assay [3], in [4] and in assay [8] was inactive. The Activity in assay [5] worked out at 64%; in assay [6], 8.5%; in [7] it was 53%. Moreover, the outcome in assay [9] was Active.
In [10], `CCC(CC)NNC(=O)c1cc2ccccc2[nH]1` returned an inhibition of 19%. The result in assay [3] and in assay [8] was inactive. In addition, the Activity in assay [4] came out at 61%; in assay [5], 30%; in [6], 16%; in assay [7], 11%. Further, the result in assay [9] was Active.
On to `NNCCCc1c[nH]c2ccccc12`, for which the inhibition entry in assay [10] was “inactive”. In addition, the result in [3] and in assay [8] was inactive. Moreover, the Activity was found to be 34% in assay [4], 25% in assay [5], 99% in [6] and 85% in assay [7].
Regarding `COc1ccc2c(c1)c(CC(=O)O)c(C)n2C(=O)c1ccc(Cl)cc1` [INDOMETHACIN], the Activity in assay [1] is recorded as 47%.
For `O=C(NN=C1CCCC1)c1cc2ccccc2[nH]1`, the inhibition in assay [10] is 37%. The result in assay [3], in [7] and in assay [8] was inactive. The results for the Activity in [4], in [5] and in assay [6] were 17%, 65% and 38%, respectively. For the same compound, in assay [9], the outcome was Active.
With `NNC(=O)CCc1c[nH]c2ccccc12`, the inhibition entry in assay [10] was “inactive”. The Activity was found to be 67% in assay [3], 56% in assay [6] and 12.5% in assay [7]. Besides, the result in assay [4], in assay [5] and in assay [8] was inactive.
Compound `C/C(Cc1ccccc1)=N/NC(=O)c1c[nH]c2ccc(O)cc12` came in with an inhibition in assay [10] of 52%. For the same compound, the outcome in [3] and in [8] was inactive. Moreover, the Activity turned out to be 2% in assay [4], 50% in [5], 80% in [6] and 65% in [7].
As to `O=C(O)/C=C/c1ccc(O)c(O)c1`, the Activity in [3] was determined as 15%.
In the case of `CC(Cc1ccc(O)c(O)c1)C(C)Cc1ccc(O)c(O)c1` (centres undefined), the Activity in assay [6] is 83%; in assay [7], 81%.
In turn, `Cc1ccc(CNNC(=O)c2cc3ccccc3n2C)cc1` came in with a half-inhibitory concentration (IC50) in assay [2] of 78 µM. The Activity in assay [3] is 67%; in assay [5] it was 85%; in assay [6], 61%; in assay [7] it was 66%. The result in [4] and in assay [8] was inactive. Further, the result in assay [9] was Active.
